The test system of this assay is mutant HIV-1 with I84V/L90M mutations. The assay is classed as cell-based.
[1] abbreviates: fold difference in EC50 vs wild type, class symbols.

Like-named read-outs stand apart in the source and are kept apart here.

Turning to `CCOP(=O)(CN1CC=C(CC(NC(=O)OC2COC3OCCC23)C(O)CN(CC(C)C)S(=O)(=O)c2ccc(OC)cc2)CC1)OCC` (stereo not drawn), under setting [1], the I84V/L90M fold change entry is “+ (>3 to ≦10)”.

On to `COc1ccc(S(=O)(=O)N(CC(C)C)CC(O)C(CC2=CCN(CCP(=O)(OCc3ccccc3)OCc3ccccc3)CC2)NC(=O)OC2COC3OCCC23)cc1` (stereo not drawn), for which the I84V/L90M fold change result under setting [1] is “+ (>3 to ≦10)”.

Turning to `CCOP(=O)(CCC1=CCN(CC(NC(=O)OC2COC3OCCC23)C(O)CN(CC(C)C)S(=O)(=O)c2ccc(OC)cc2)CC1)OCC` (stereo not drawn), the I84V/L90M fold change entry under setting [1] was “+ (>3 to ≦10)”.

Take `CCOP(=O)(Cc1ccc(NCC(NC(=O)OC2COC3OCCC23)C(O)CN(CC(C)C)S(=O)(=O)c2ccc(OC)cc2)cc1)OCC` (stereo not drawn): the I84V/L90M fold change result under setting [1] is listed as “+ (>3 to ≦10)”.

Consider `CCOP(=O)(Cc1ccc(N(C)CC(NC(=O)OC2COC3OCCC23)C(O)CN(CC(C)C)S(=O)(=O)c2ccc(OC)cc2)cc1)OCC` (stereo not drawn), for which, under setting [1], the I84V/L90M fold change result was “+ (>3 to ≦10)”.

`CCOP(=O)(OCC)c1ccc(CN(C)CC(NC(=O)OC2COC3OCCC23)C(O)CN(CC(C)C)S(=O)(=O)c2ccc(OC)cc2)cc1` (stereo not drawn): the I84V/L90M fold change result under setting [1] is listed as “− (≦3)”.

With `CCOP(=O)(Cc1ccc2c(c1)CCN(CC(NC(=O)OC1COC3OCCC13)C(O)CN(CC(C)C)S(=O)(=O)c1ccc(OC)cc1)C2)OCC` (stereo not drawn), the I84V/L90M fold change entry under setting [1] is recorded as “+ (>3 to ≦10)”.

Turning to `CCOP(=O)(CNc1ccc(CC(NC(=O)OC2COC3OCCC23)C(O)CN(CC(C)C)S(=O)(=O)c2ccc(OC)cc2)cc1)OCC` (stereo not drawn), under setting [1], the I84V/L90M fold change result is given as “− (≦3)”.

`COc1ccc(S(=O)(=O)N(CC(C)C)CC(O)C(Cc2ccc(NCP(=O)(OCc3ccccc3)OCc3ccccc3)cc2)NC(=O)OC2COC3OCCC23)cc1` (stereo not drawn): the I84V/L90M fold change entry under setting [1] is listed as “− (≦3)”.

Take `COc1ccc(S(=O)(=O)N(CC(C)C)CC(O)C(Cc2ccc(OCc3ccccc3)cc2)NC(=O)OC2COC3OCCC23)cc1` (stereo not drawn): for the setting “I84V/L90M mutant”, the I84V/L90M fold change result was “− (≦3)”.

On to `COc1ccc(S(=O)(=O)N(CCN(C)C)CC(O)C(Cc2ccc(O)cc2)NC(=O)OC2COC3OCCC23)cc1` (stereo not drawn), for which the I84V/L90M fold change result (I84V/L90M mutant) is recorded as “− (≦3)”.

`COc1ccc(S(=O)(=O)N(CCN(C)C)CC(O)C(Cc2ccc(OCc3ccccc3)cc2)NC(=O)OC2COC3OCCC23)cc1` (stereo not drawn): the I84V/L90M fold change result (I84V/L90M mutant) is “− (≦3)”.

Turning to `CCOC(=O)C(C)OP(=O)(Cc1ccc2c(c1)CCN(C[C@H](NC(=O)O[C@H]1CO[C@H]3OCC[C@H]31)[C@H](O)CN(CC(C)C)S(=O)(=O)c1ccc(OC)cc1)C2)Oc1ccccc1` (stereo partly drawn), the I84V/L90M fold change entry (I84V/L90M mutant) is on record as “+ (>3 to ≦10)”.

Take `Cc1cccc(C)c1OCC(=O)NC(Cc1ccc(OCP(=O)(O)O)cc1)C(O)CN(CC(C)C)S(=O)(=O)c1ccc(N)cc1` (stereo not drawn): the I84V/L90M fold change entry (I84V/L90M mutant) was “− (≦3)”.

For `Cc1cccc(C)c1OCC(=O)NC(Cc1ccc(OCP(=O)(OCc2ccccc2)OCc2ccccc2)cc1)C(O)CN(CC(C)C)S(=O)(=O)c1ccc(N)cc1` (stereo not drawn), under “I84V/L90M mutant”, the I84V/L90M fold change result was “− (≦3)”.

Consider `Cc1ccc(C(=O)NC(Cc2ccc(OCP(=O)(OCc3ccccc3)OCc3ccccc3)cc2)C(O)CN(CC(C)C)S(=O)(=O)c2ccc(N)cc2)cc1O` (stereo not drawn), for which, under “I84V/L90M mutant”, the I84V/L90M fold change entry is recorded as “+ (>3 to ≦10)”.

On to `CC(C)CN(CC(O)C(Cc1ccc(OCP(=O)(O)O)cc1)NC(=O)OC1COC2OCCC12)S(=O)(=O)c1ccc(N)cc1` (stereo not drawn), for which, where the note is “I84V/L90M mutant”, the I84V/L90M fold change result is “− (≦3)”.

Turning to `CCOP(=O)(COc1ccc(CC(NC(=O)OC2COC3OCCC23)C(O)CN(CC(C)C)S(=O)(=O)c2ccc(N)cc2)cc1)OCC` (stereo not drawn), for the setting “I84V/L90M mutant”, the I84V/L90M fold change result is “− (≦3)”.

As to `CCOP(=O)(COc1ccc(CC(NC(=O)OC2COC3OCCC23)C(O)CN(CC(C)C)S(=O)(=O)c2ccc([N+](=O)[O-])cc2)cc1)OCC` (stereo not drawn), under “I84V/L90M mutant”, the I84V/L90M fold change result is on record as “− (≦3)”.

On to `CCNc1ccc(S(=O)(=O)N(CC(C)C)CC(O)C(Cc2ccc(OCP(=O)(OCC)OCC)cc2)NC(=O)OC2COC3OCCC23)cc1` (stereo not drawn), for which the I84V/L90M fold change result (I84V/L90M mutant) was “− (≦3)”.

Take `CC(C)CN(CC(O)C(Cc1ccc(OCP(=O)(OCc2ccccc2)OCc2ccccc2)cc1)NC(=O)OC1COC2OCCC12)S(=O)(=O)c1ccc(N)cc1` (stereo not drawn): where the note is “I84V/L90M mutant”, the I84V/L90M fold change entry is given as “− (≦3)”.

Take `CC(C)CN(CC(O)C(Cc1ccc(OCP(=O)(O)O)cc1)NC(=O)OC1COC2OCCC12)S(=O)(=O)c1cccc(N)c1` (stereo not drawn): the I84V/L90M fold change result (I84V/L90M mutant) was “− (≦3)”.

In the case of `CCOP(=O)(COc1ccc(CC(NC(=O)OC2COC3OCCC23)C(O)CN(CC(C)C)S(=O)(=O)c2cccc(N)c2)cc1)OCC` (stereo not drawn), where the note is “I84V/L90M mutant”, the I84V/L90M fold change entry was “− (≦3)”.

Turning to `CC(C)CN(CC(O)C(Cc1ccc(OCP(=O)(OCc2ccccc2)OCc2ccccc2)cc1)NC(=O)OC1COC2OCCC12)S(=O)(=O)c1cccc(N)c1` (stereo not drawn), where the note is “I84V/L90M mutant”, the I84V/L90M fold change entry is listed as “− (≦3)”.

On to `CCCCOC(=O)C(C)OP(=O)(COc1ccc(CC(NC(=O)OC2COC3OCCC23)C(O)CN(CC(C)C)S(=O)(=O)c2cccc(N)c2)cc1)Oc1ccccc1` (stereo not drawn), for which the I84V/L90M fold change result (I84V/L90M mutant) is recorded as “− (≦3)”.

As to `CC(C)CN(CC(O)C(Cc1ccc(OCP(=O)(OCc2ccccc2)OCc2ccccc2)cc1)NC(=O)OC1COC2OCCC12)S(=O)(=O)c1ccccc1` (stereo not drawn), the I84V/L90M fold change entry (I84V/L90M mutant) is “+ (>3 to ≦10)”.

On to `CC(C)CN(CC(O)C(Cc1ccc(OCP(=O)(OCc2ccccc2)OCc2ccccc2)cc1)NC(=O)OC1COC2OCCC12)S(=O)(=O)c1ccc(C(F)(F)F)cc1` (stereo not drawn), for which the I84V/L90M fold change result (I84V/L90M mutant) was “− (≦3)”.

As for `CC(C)CN(CC(O)C(Cc1ccc(OCP(=O)(OCc2ccccc2)OCc2ccccc2)cc1)NC(=O)OC1COC2OCCC12)S(=O)(=O)c1ccc(C#N)cc1` (stereo not drawn), the I84V/L90M fold change result (I84V/L90M mutant) was “− (≦3)”.

With `CC(C)CN(CC(O)C(Cc1ccccc1)NC(=O)OC1COC2OCCC12)S(=O)(=O)c1ccc(O)cc1` (stereo not drawn), the I84V/L90M fold change entry (I84V/L90M mutant) is recorded as “− (≦3)”.

`CC(C)CN(CC(O)C(Cc1ccccc1)NC(=O)OC1COC2OCCC12)S(=O)(=O)c1ccc(OCP(=O)(O)O)cc1` (stereo not drawn): the I84V/L90M fold change result (I84V/L90M mutant) is recorded as “− (≦3)”.

Take `COc1ccc(S(=O)(=O)N(CC(C)C)CC(O)C(Cc2ccccc2)NC(=O)OC2COC3OCCC23)cc1O` (stereo not drawn): for the setting “I84V/L90M mutant”, the I84V/L90M fold change result is on record as “− (≦3)”.

For `COc1ccc(S(=O)(=O)N(CC(C)C)CC(O)C(Cc2ccccc2)NC(=O)OC2COC3OCCC23)cc1OCP(=O)(O)O` (stereo not drawn), the I84V/L90M fold change result (I84V/L90M mutant) is listed as “− (≦3)”.

Turning to `CCOP(=O)(COc1cc(S(=O)(=O)N(CC(C)C)CC(O)C(Cc2ccccc2)NC(=O)OC2COC3OCCC23)ccc1O)OCC` (stereo not drawn), the I84V/L90M fold change entry (I84V/L90M mutant) is “− (≦3)”.

Turning to `COC(=O)N[C@H](C(=O)N[C@@H](Cc1ccccc1)[C@@H](O)CN(Cc1ccc(-c2ccccn2)cc1)NC(=O)[C@@H](NC(=O)OC)C(C)(C)C)C(C)(C)C` [Atazanavir, reference compound], the I84V/L90M fold change result under setting [1] is reported as “+++ (>30)”.

`CC(C)CN(C[C@@H](O)[C@H](Cc1ccc(OCP(=O)(Oc2ccccc2)Oc2ccccc2)cc1)NC(=O)OC1CCOC1)S(=O)(=O)c1ccc(N)cc1` (stereo partly drawn) [NH2, phenol]: the I84V/L90M fold change result (I84V/L90M mutant) is listed as “− (≦3)”.

With `CC(C)CN(CC(O)C(Cc1ccc(O)cc1)NC(=O)OC1COC2OCCC12)S(=O)(=O)c1cccc(N)c1` (stereo not drawn) [OH, m-NH2], the I84V/L90M fold change result (I84V/L90M mutant) is listed as “− (≦3)”.

On to `CC(C)CN(CC(O)C(Cc1ccc(O)cc1)NC(=O)OC1COC2OCCC12)S(=O)(=O)c1ccc(N)cc1` (stereo not drawn) [OH, p-NH2], for which the I84V/L90M fold change entry (I84V/L90M mutant) is reported as “− (≦3)”.

As for `COc1ccc(S(=O)(=O)N(CC(C)C)C[C@@H](O)[C@H](Cc2ccc(OCP(=O)(O)O)cc2)NC(=O)OC2CCOC2)cc1` (stereo partly drawn) [OMe, OH], the I84V/L90M fold change result (I84V/L90M mutant) is listed as “+++ (>30)”.

Turning to `COc1ccc(S(=O)(=O)N(CC(C)C)C[C@@H](O)[C@H](Cc2ccc(OCP(=O)(Oc3ccccc3)Oc3ccccc3)cc2)NC(=O)OC2CCOC2)cc1` (stereo partly drawn) [OMe, phenol], the I84V/L90M fold change result (I84V/L90M mutant) is reported as “+ (>3 to ≦10)”.

The values above are taken from patent publication US20070190523A1 (priority 2002, published 2007).
